Source: PMC4520770 (Journal of molecular biology, 2015)
No end group written: not given here.

Assays:
Mcl-1 = Mcl-1 (Homo sapiens, UniProt Q07820); test: Direct fluorescence anisotropy binding to Mcl-1
BHRF1 = BHRF1 (Epstein-Barr virus, UniProt P03182); test: biochemical; type: binding, Epstein-Barr herpesvirus (EBV)
KSBcl-2 = KSBcl-2 (Human herpesvirus 8 type P, UniProt F5HGJ3); test: biochemical; type: binding, Kaposi's sarcoma-associated herpesvirus (KSHV)
Chain of KSBcl-2 (F5HGJ3 whole entry): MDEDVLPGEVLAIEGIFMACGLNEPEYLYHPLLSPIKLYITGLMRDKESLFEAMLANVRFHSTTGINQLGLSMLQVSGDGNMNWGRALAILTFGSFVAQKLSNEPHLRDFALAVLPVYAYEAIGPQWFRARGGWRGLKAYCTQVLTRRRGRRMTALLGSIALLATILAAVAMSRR

Chain of BHRF1 (P03182 whole entry): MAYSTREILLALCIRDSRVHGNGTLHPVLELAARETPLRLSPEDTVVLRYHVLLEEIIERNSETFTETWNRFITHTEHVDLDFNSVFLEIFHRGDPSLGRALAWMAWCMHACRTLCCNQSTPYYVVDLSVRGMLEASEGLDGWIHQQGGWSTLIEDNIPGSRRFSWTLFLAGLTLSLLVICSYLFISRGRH
Chain of Mcl-1 (Q07820 whole entry): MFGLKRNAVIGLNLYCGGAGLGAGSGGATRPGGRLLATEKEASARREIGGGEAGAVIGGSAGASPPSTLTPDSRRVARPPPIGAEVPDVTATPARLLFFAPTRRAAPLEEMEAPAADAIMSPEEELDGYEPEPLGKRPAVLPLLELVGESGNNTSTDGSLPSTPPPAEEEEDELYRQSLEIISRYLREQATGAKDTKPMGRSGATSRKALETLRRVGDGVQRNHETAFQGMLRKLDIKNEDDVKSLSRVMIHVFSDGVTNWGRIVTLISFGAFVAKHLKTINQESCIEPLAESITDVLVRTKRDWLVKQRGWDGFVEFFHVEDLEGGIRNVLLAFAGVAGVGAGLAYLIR

| Substance | Kd (Mcl-1) | Kd (BHRF1) | Kd (KSBcl-2) |
| --- | --- | --- | --- |
| RPIIWIGQEISRVGDRENAYKAR-NH2 [BL6-22_Y4eK] | ~2200 nM | 30 ± 17 nM | 750 ± 300 nM |
| RPNIWLTQRLQRTGDGLNAYYAR-NH2 [KScomp] | 510 ± 190 nM | > 1000 nM | 13 ± 7.3 nM |
| RPQIWIHQGLQRLGAGLNAYYAR-NH2 [KL6-7_D3fA] | > 5000 nM | > 1000 nM | 180 ± 80 nM |
| RPQIWIHQGLQRLGDGLNAYKAR-NH2 [KL6-7_Y4eK] | ~7800 nM | > 1000 nM | 2.9 ± 1.3 nM |
